pIC50: −log10 of the molar value. Counter-ions that a name gives are not always drawn.
Target: GCN2 (Homo sapiens, UniProt Q9P2K8)
Experiment: GCN2 enzyme assay (TR-FRET Lanthascreen, GFP-eIF2alpha phosphorylation)
Format: biochemical
Conditions: 10 μM ATP, 80 nM GFP-eIF2a, 30 nM GCN2
Description: GCN2: Assay Principle & Conditions
This assay can quantificate the activity of the serin kinase GCN2 (general control non-derepressible-2).
This kinase is involved in the stress metabolism of cells. It is activated upon starvation (amino acid depletion). Its natural substrate is eIF2a (eukaryotic initiation factor 2 alpha subunit), a translation factor, which gets activated (phosphorylated) by GCN2 in case of an amino acid bottleneck in the cells. This in turn leads to a halt of the protein synthesis. Inhibition of GCN2 results in stopping this mechanism: The cell can not stop protein production upon “starvation” stress.
The assay is run in two steps: the enzymatic reaction and the detection step. In the first step GCN2 is incubated with 10 μM ATP and 80 nM of the GFP-labelled substrate eIF2alpha at room temperature.
The enzymatic reaction is stopped by addition of EDTA. The amount of phosphorylated eIF2alpha is determined by TR-FRET (Lanthascreen): A complex is formed consisting of antibody and GFP labelled phospho-eIF2a, which allows a FRET upon exitation at 340 nm.
Final Concentrations in the Enzymatic Reaction

Sequence of GCN2 (Q9P2K8 whole entry, species assumed): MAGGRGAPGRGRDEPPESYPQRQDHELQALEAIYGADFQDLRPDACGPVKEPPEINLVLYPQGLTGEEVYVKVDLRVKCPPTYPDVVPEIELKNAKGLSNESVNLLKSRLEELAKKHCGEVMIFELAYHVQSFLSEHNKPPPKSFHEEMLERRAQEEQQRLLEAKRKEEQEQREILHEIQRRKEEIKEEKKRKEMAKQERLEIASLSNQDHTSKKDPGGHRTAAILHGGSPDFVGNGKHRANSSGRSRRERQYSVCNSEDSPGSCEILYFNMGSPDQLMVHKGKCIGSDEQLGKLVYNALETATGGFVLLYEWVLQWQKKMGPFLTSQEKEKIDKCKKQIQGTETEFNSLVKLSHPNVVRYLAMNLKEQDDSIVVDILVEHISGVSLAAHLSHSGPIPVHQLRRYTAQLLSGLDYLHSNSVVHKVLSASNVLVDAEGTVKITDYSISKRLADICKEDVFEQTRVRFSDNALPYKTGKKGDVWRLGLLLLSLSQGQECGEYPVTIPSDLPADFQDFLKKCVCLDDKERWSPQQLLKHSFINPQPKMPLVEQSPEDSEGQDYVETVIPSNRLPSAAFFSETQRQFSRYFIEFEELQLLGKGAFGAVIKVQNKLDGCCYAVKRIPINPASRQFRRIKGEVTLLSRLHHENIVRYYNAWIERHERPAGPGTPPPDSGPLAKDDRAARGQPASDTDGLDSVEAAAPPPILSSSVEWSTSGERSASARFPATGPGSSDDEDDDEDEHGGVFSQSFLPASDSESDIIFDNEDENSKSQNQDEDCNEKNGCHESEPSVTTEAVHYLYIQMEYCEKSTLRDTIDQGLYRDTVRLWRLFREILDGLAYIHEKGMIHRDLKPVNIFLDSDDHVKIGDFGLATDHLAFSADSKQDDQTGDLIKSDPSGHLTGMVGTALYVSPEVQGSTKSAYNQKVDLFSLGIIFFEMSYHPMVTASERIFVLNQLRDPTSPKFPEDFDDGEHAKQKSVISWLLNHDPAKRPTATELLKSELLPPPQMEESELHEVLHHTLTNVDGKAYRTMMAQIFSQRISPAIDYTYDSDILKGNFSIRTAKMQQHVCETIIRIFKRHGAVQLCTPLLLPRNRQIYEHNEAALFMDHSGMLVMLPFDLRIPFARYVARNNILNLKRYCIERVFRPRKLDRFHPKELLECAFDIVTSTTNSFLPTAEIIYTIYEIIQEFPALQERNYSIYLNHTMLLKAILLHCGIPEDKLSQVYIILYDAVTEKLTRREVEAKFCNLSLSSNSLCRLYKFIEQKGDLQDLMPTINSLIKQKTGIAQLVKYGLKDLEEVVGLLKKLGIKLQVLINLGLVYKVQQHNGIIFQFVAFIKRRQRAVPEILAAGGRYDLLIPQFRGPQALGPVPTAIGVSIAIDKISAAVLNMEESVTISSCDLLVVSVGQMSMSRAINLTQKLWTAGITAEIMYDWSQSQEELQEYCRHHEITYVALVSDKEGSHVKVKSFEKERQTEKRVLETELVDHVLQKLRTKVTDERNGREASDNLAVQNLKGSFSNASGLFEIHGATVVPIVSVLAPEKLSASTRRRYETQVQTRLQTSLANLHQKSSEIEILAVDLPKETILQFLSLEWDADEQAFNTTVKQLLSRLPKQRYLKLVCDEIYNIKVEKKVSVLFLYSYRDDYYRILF

SMILES | pIC50
COc1ccc(-n2nnc3cnc(N[C@H]4C[C@H](O)C4)nc32)cc1 [A24, trans-3-[3-(4-methoxy-phenyl)-3H-[1,2,3]triazolo[4,5-d]pyrimidin-5-ylamino]-cyclobutanol] | > 6.00
COc1ccc(-n2nnc3cnc(NC4CCN(c5ccncc5)CC4)nc32)cc1 [A82, [3-(4-methoxy-phenyl)-3H-[1,2,3]triazolo[4,5-d]pyrimidin-5-yl]-(3,4,5,6-tetrahydro-2H-[1,4′]bipyridinyl-4-yl)-amine] | > 6.00
COc1ccc(-n2nnc3cnc(NCCCN4CCCC4)nc32)cc1 [A61, [3-(4-methoxy-phenyl)-3H-[1,2,3]triazolo[4,5-d]pyrimidin-5-yl]-(3-pyrrolidin-1-yl-propyl)-amine] | 5.00 to 5.30
O=C(O)[C@H]1CC[C@@H](Nc2ncc3nnn(-c4ccc5ncccc5c4)c3n2)C1 [A188, (1S,3R)-3-(3-quinolin-6-yl-3H-[1,2,3]triazolo[4,5-d]pyrimidin-5-ylamino)-cyclopentanecarboxylic acid] | > 6.00
COc1ccc(-n2nnc3cnc(NC(C)(C)C)nc32)cc1 [A7, tert-butyl-[3-(4-methoxy-phenyl)-3H-[1,2,3]triazolo[4,5-d]pyrimidin-5-yl]-amine] | > 6.00
CNc1ncc2nnn(-c3ccc(OC)cc3)c2n1 [A14, [3-(4-methoxy-phenyl)-3H-[1,2,3]triazolo[4,5-d]pyrimidin-5-yl]-methyl-amine] | 5.30 to 6.00
NC(=O)[C@H]1CC[C@@H](Nc2ncc3nnn(-c4ccc(I)cc4)c3n2)C1 [A171, (1S,3R)-3-[3-(4-iodo-phenyl)-3H-[1,2,3]triazolo[4,5-d]pyrimidin-5-ylamino]-cyclopentanecarboxylic acid amide] | > 6.00
COc1ccc(-n2nnc3cnc(N[C@@H]4CCN(S(C)(=O)=O)C4)nc32)cc1 [A269a, ((R)-1-Methanesulfonyl-pyrrolidin-3-yl)-[3-(4-methoxy-phenyl)-3H-[1,2,3]triazolo[4,5-d]pyrimidin-5-yl]-amine] | > 6.00
NC(=O)[C@@H]1CC[C@@H](Nc2ncc3nnn(-c4ccc(N5CCOCC5=O)c(F)c4)c3n2)C1 [A154, (1R,3R)-3-{3-[3-fluoro-4-(3-oxo-morpholin-4-yl)-phenyl]-3H-[1,2,3]triazolo[4,5-d]pyrimidin-5-ylamino}-cyclopentanecarboxylic acid amide] | > 6.00
COc1ccc(-n2nnc3cnc(N[C@H]4CC[C@@H](N(C)C)C4)nc32)cc1 (relative stereo) [A108, (cis)-N-[3-(4-methoxy-phenyl)-3H-[1,2,3]triazolo[4,5-d]pyrimidin-5-yl]-N′,N′-dimethyl-cyclopentane-1,3-diamine] | > 6.00
COc1ccc(-n2nnc3cnc(N[C@@H]4CC[C@H](C(=O)N5CCN(C)CC5)C4)nc32)cc1 [A97, {(1S,3R)-3-[3-(4-methoxy-phenyl)-3H-[1,2,3]triazolo[4,5-d]pyrimidin-5-ylamino]-cyclopentyl}-(4-methyl-piperazin-1-yl)-methanone] | > 6.00
COCCOc1ccc(-n2nnc3cnc(N[C@@H]4CC[C@H](C(N)=O)C4)nc32)cc1 [A166, (1S,3R)-3-{3-[4-(2-methoxy-ethoxy)-phenyl]-3H-[1,2,3]triazolo[4,5-d]pyrimidin-5-ylamino}-cyclopentanecarboxylic acid amide] | > 6.00
COc1ccc(-n2nnc3cnc(NC4CN(C(=O)CCN(C)C)C4)nc32)cc1 [A63, 3-dimethylamino-1-{3-[3-(4-methoxy-phenyl)-3H-[1,2,3]triazolo[4,5-d]pyrimidin-5-ylamino]-azetidin-1-yl}-propan-1-one] | > 6.00
COc1ccc(-n2nnc3cnc(NC4CCNC(=O)C4)nc32)cc1 (stereo not shown) [A87, 4-[3-(4-methoxy-phenyl)-3H-[1,2,3]triazolo[4,5-d]pyrimidin-5-ylamino]-piperidin-2-one] | 5.30 to 6.00
COc1ccc(-n2nnc3cnc(NC4CCS(=O)(=O)C4)nc32)cc1 (stereo not shown) [A8, N-(1,1-dioxothiolan-3-yl)-3-(4-methoxyphenyl)triazolo[4,5-d]pyrimidin-5-amine] | > 6.00
COC(=O)[C@H]1CC[C@H](Nc2ncc3nnn(-c4ccc(OC)cc4)c3n2)C1 [A110, (1S,3S)-3-[3-(4-methoxy-phenyl)-3H-[1,2,3]triazolo[4,5-d]pyrimidin-5-ylamino]-cyclopentanecarboxylic acid methyl ester] | > 6.00
COCCOc1ccc(-n2nnc3cnc(NCCCc4ccccn4)nc32)cc1 [A68, {3-[4-(2-methoxy-ethoxy)-phenyl]-3H-[1,2,3]triazolo[4,5-d]pyrimidin-5-yl}-(3-pyridin-2-yl-propyl)-amine] | > 6.00

SMILES | pIC50
COc1ccc(-n2nnc3cnc(NCCN4CCN(C)CC4)nc32)cc1 [A50, [3-(4-methoxy-phenyl)-3H-[1,2,3]triazolo[4,5-d]pyrimidin-5-yl]-[2-(4-methyl-piperazin-1-yl)-ethyl]-amine] | 5.30 to 6.00
COc1ccc(-n2nnc3cnc(N[C@H]4CCN(C(=O)CN(C)C)C4)nc32)cc1 [A91, 2-dimethylamino-1-{(S)-3-[3-(4-methoxy-phenyl)-3H-[1,2,3]triazolo[4,5-d]-pyrimidin-5-ylamino]-pyrrolidin-1-yl}-ethanone formate] | 5.30 to 6.00
COc1ccc(-n2nnc3cnc(N[C@@H]4CCC[C@@H](O)C4)nc32)cc1 [A201, (1R,3R)-3-[3-(4-methoxy-phenyl)-3H-[1,2,3]triazolo[4,5-d]pyrimidin-5-ylamino]-cyclohexanol] | > 6.00
COc1ccc(-n2nnc3cnc(NC4CC(=O)N(C)C4)nc32)cc1 (stereo not shown) [A20, 4-[3-(4-methoxy-phenyl)-3H-[1,2,3]triazolo[4,5-d]pyrimidin-5-ylamino]-1-methyl-pyrrolidin-2-one] | 5.30 to 6.00
COc1ccc(-n2nnc3cnc(NC4CCCNC4)nc32)cc1 (stereo not shown) [A43, [3-(4-methoxy-phenyl)-3H-[1,2,3]triazolo[4,5-d]pyrimidin-5-yl]-piperidin-3-yl-amine hydrochloride] | 5.30 to 6.00
COc1ccc(-n2nnc3cnc(NC4CCN(C(=O)OC(C)(C)C)CC4)nc32)cc1 [A34, 4-[3-(4-methoxy-phenyl)-3H-[1,2,3]triazolo[4,5-d]pyrimidin-5-ylamino]-piperidine-1-carboxylic acid tert-butyl ester] | > 6.00
COc1ccc(-n2nnc3cnc(N[C@H]4CC[C@H](S(C)(=O)=O)C4)nc32)cc1 (relative stereo) [A263, ((trans)-3-methanesulfonyl-cyclopentyl)-[3-(4-methoxy-phenyl)-3H-[1,2,3]triazolo[4,5-d]pyrimidin-5-yl]-amine] | > 6.00
CCOc1ccc(-n2nnc3cnc(N[C@H]4CC[C@H](n5ncccc5=O)C4)nc32)cc1 (relative stereo) [A287, 2-{(trans)-3-[3-(4-ethoxy-phenyl)-3H-[1,2,3]triazolo[4,5-d]-pyrimidin-5-ylamino]-cyclopentyl}-2H-pyridazin-3-one] | > 6.00
COc1ccc(-n2nnc3cnc(NCCCOCCCN)nc32)cc1 [A76, [3-(3-amino-propoxy)-propyl]-[3-(4-methoxy-phenyl)-3H-[1,2,3]triazolo[4,5-d]pyrimidin-5-yl]-amine formate] | > 6.00
O[C@@H]1CC[C@@H](Nc2ncc3nnn(-c4ccc(-c5cnn(Cc6cccnc6)c5)cc4)c3n2)C1 [A231, (1R,3R)-3-{3-[4-(1-pyridin-3-ylmethyl-1H-pyrazol-4-yl)-phenyl]-3H-[1,2,3]triazolo[4,5-d]pyrimidin-5-ylamino}-cyclopentanol] | > 6.00
NC(=O)CCn1cc(-c2ccc(-n3nnc4cnc(N[C@H]5CC[C@H](O)C5)nc43)cc2)cn1 (relative stereo) [A268, 3-(4-{4-[5-(trans-3-hydroxy-cyclopentylamino)-[1,2,3]triazolo[4,5-d]pyrimidin-3-yl]-phenyl}-pyrazol-1-yl)-propionamide] | > 6.00
COc1ccc(-n2nnc3cnc(NC4CCc5[nH]ncc5C4)nc32)cc1 (stereo not shown) [A23, [3-(4-methoxy-phenyl)-3H-[1,2,3]triazolo[4,5-d]pyrimidin-5-yl]-(4,5,6,7-tetrahydro-1H-indazol-5-yl)-amine] | > 6.00
COc1ccc(-n2nnc3cnc(N[C@@H]4CCOC4)nc32)cc1 [A98, [3-(4-methoxy-phenyl)-3H-[1,2,3]triazolo[4,5-d]pyrimidin-5-yl]-(R)-tetrahydrofuran-3-yl-amine] | > 6.00
COc1ccc(-n2nnc3cnc(NCCOCCN)nc32)cc1 [A74, [2-(2-amino-ethoxy)-ethyl]-[3-(4-methoxy-phenyl)-3H-[1,2,3]triazolo[4,5-d]-pyrimidin-5-yl]-amine formate] | 5.30 to 6.00
COc1ccc(-n2nnc3cnc(N[C@@H]4CC[C@@H](C(=O)O)C4)nc32)cc1 [A139, (1R,3R)-3-[3-(4-methoxy-phenyl)-3H-[1,2,3]triazolo[4,5-d]pyrimidin-5-ylamino]-cyclopentanecarboxylic acid] | > 6.00
Cn1cc(CNc2ncc3nnn(-c4ccc(Cl)c(F)c4)c3n2)cn1 [B4, [3-(4-chloro-3-fluoro-phenyl)-3H-[1,2,3]triazolo[4,5-d]pyrimidin-5-yl]-(1-methyl-1H-pyrazol-4-ylmethyl)-amine] | 5.30 to 6.00
COc1ccc(-n2nnc3cnc(N[C@@H]4CC[C@](O)(C(F)(F)F)C4)nc32)cc1 (relative stereo) [A67, trans-3-[3-(4-methoxy-phenyl)-3H-[1,2,3]triazolo[4,5-d]pyrimidin-5-ylamino]-1-trifluoromethyl-cyclopentanol] | 5.30 to 6.00
